Data reported in US20260248763A1 (BIO GENUINE (SHANGHAI) BIOTECH CO., LTD, priority 2023, published 2026).

biological target: T1, OTR (Homo sapiens, UniProt P30559); experiment: Ca2+ mobilization in cells stably expressing OTR (FLIPR, antagonist mode); type: cell-based; conditions: OTR/HEK293 stably transfected cell line
T1 construct: expressed in transfected cells; host or cells: OTR/HEK293 stably transfected cell line
T1 sequence (P30559 1-389): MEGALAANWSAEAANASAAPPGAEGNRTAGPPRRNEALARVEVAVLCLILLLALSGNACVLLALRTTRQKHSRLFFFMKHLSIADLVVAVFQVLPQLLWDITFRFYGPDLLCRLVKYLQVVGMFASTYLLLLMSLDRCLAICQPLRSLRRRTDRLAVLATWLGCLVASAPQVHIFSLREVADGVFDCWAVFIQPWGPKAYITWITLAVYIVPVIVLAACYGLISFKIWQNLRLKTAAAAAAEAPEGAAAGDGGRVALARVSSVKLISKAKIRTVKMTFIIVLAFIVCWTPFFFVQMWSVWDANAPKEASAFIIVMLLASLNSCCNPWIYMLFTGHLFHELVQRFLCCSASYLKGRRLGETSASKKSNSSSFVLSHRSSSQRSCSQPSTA
Excerpt: Test Example 1. Determination of the Effect of the Compound of the Present Disclosure on Ca^2+ Mobilization in Cells Stably Expressing OTR
To measure the antagonistic effect of the compound of the present disclosure on OTR activity expressed in the OTR/HEK293 stably transfected cell line.
• DMEM medium (Invitrogen, 11965) • F12 medium (Invitrogen, 11765) • Fetal bovine serum (Excell, FSP500) • Geneticin (Invitrogen, 10131) • Penicillin/Streptomycin (Invitrogen, SV30010) • Fluo-4 Direct kit (Invitrogen, F10471) • 384-well cell plate (Greiner, 781090) • 384-well compound plate (Greiner, 781280)
• FLIPR instrument (Molecular Device) • EHCO instrument (Labcyte) • Cell counter (Beckman, Vi-cell XR)
The cultured cells were washed twice with pre-heated DPBS and digested with appropriate amount of trypsin at 37° C. for 1 minute, and then appropriate amount of culture medium was added to terminate digestion. The cells were centrifuged at 1000 rpm for 5 minutes. The supernatant was gently discarded without disturbing the cell pellet at the bottom. The cells were resuspended in culture medium and 1 mL was taken out for cell counting and viability assessment using Vi-CELL™. The cells were diluted to 1×10^6 cells/mL (20,000 cells/20 μL) with culture medium, seeded into a 384-well cell plate and incubated at 37° C. with 5% CO2 for 16-20 h.
Formulation of 250 mM Probenecid solution: according to the kit instructions, 1 mL of FLIPR buffer salt solution was added to 77 mg of probenecid, prepared fresh just before use. Formulation of Fluo-4 Direct™ (2×, 8 μM) loading buffer: according to the kit instructions, the required amount of Fluo-4 Direct™ was taken out and thawed in advance, 10 mL of FLIPR buffer salt solution and 0.2 mL of 250 mM Probenecid solution were added to each tube, and the mixture was vortexed in the dark for >5 minutes, prepared fresh just before use.
Preparation of agonist reference compound plate: the agonist was diluted 3-fold in 10 points using ECHO, and 750 nL was transferred to the corresponding compound plate using ECHO.
Preparation of reference and test compound plates: the test compound was diluted 3-fold in 10 points with ECHO, and 900 nL was transferred to the corresponding compound plate; the reference compound was diluted 3-fold in 10 points with assay buffer salt solution, and 30 μL was transferred to the compound plate.
30 μL of assay buffer salt solution was added to the corresponding compound plate, and the mixture was centrifuged at 1000 rpm for 1 minute.
The cell plate prepared the day before was taken out of the incubator, and 20 μL of 2×Fluo-4 Direct™ buffer was added to each well, with a total volume of 40 μL.
The plate was incubated in an incubator at 37° C. with 5% CO2 for 50 minutes, and then placed at room temperature for 10 minutes.
The compound plate, cell plate, and pipette tips were placed into the instrument.
For the agonist reference compound plate: the FLIPR instrument software was run, 10 μL of the pre-determined concentration of agonist reference compound was added to the cell plate following the preset protocol, and the fluorescence signal was read. After reading, the data were exported to calculate the EC80 for each cell line, and the agonist at 6×EC80 concentration was prepared.
For the compound plate: the FLIPR instrument software was run, 10 μL of the pre-determined concentration of test compound and the reference compound were added to the cell plate following the preset protocol, and the fluorescence signal was read. 10 μL of the reference compound agonist at 6×EC80 concentration was added to the cell plate, and the fluorescence signal was read. For antagonist detection of the compound, the data were exported using the “Max-Min” and “Read 1 to Maximum allowed” methods in the software, and the data were fitted using Prism.

Row | Structure (SMILES) | IC50
1 | CON=C1CN(C(=O)c2ccc(-c3ccccc3C)cc2)C2COCCN12 (mixture of isomers) [Example C0033, (EZ)-(3-(Methoxyimino)hexahydro-1H-imidazo[2,1-c][1,4]oxazin-1-yl)(2′-methyl-[1, 1′-biphenyl]-4-yl)methanone] | 1900 nM
2 | CO/N=C1/CC2(CO)CCC1N2C(=O)c1ccc(-c2ccccc2C)cc1 (single isomer, unassigned) [Example A0087] | 1080 nM
3 | CON=C1CC(C(=O)NCC(O)c2ccccc2)N(C(=O)c2ccc(-c3cccc(C#N)c3C)cc2)C1 (single isomer, unassigned) [Example A0229, (25, E)-1-(3′-Cyano-2′-methyl-[1,1′-biphenyl]-4-carbonyl)-N-(2-hydroxy-2-phenethyl)-4-(methoxyimino)pyrrolidine-2-carboxamide] | 122 nM
4 | CON=C1CC(C(=O)NCC(O)c2ccccc2)N(C(=O)c2ccc(-c3cccc(C#N)c3C)cc2)C1 (single isomer, unassigned) [Example A0233, (25, Z)-1-(3′-Cyano-2′-methyl-[1,1′-biphenyl]-4-carbonyl)-N-(2-hydroxy-2-phenethyl)-4-(methoxyimino)pyrrolidine-2-carboxamide] | 48.3 nM
5 | CON=C1C[C@@H](CNC(C)=O)N(C(=O)c2ccc(-c3ccccc3C)cc2)C1 (single isomer, unassigned) [Example C0006] | 1740 nM
6 | CO/N=C1/C[C@@H](CO)N(C(=O)c2ccc(-c3ccc(C#N)cc3C)cc2)C1 (single isomer, unassigned) [Example C0093] | 1140 nM
7 | CON=C1C[C@@H](CO)N(C(=O)c2ncc(-c3cccc(C)c3C)nn2)C1 (single isomer, unassigned) [Example C0109] | 367 nM
8 | CO/N=C1\C[C@@H]([C@H](C)O)N(C(=O)c2ccc(-c3cccc(C#N)c3C)cc2)C1 (single isomer, unassigned) [Example C0110] | 98.1 nM
9 | CON=C1C[C@@H](CO)N(C(=O)c2ccc3c(c2)COCc2c(C#N)cccc2-3)C1 (single isomer, unassigned) [Example C0142, (Z/E)-9-(2-(Hydroxymethyl)-4-(methoxyimino)pyrrolidine-1-carbonyl)-5,7-dihydrodibenzo[c,e]oxepine-4-carbonitrile] | 2940 nM
10 | CO/N=C1\CN(C(=O)c2ccc(-c3ccccc3C)cc2)C2(COC2)C1 [Example A0041, (Z)-(7-(Methoxyimino)-2-oxa-5-azaspiro[3.4]octan-5-yl)(2′-methyl-[1, 1′-biphenyl]-4-yl)methanone] | 575 nM
11 | CON=C1C[C@@H](C2(O)CC2)N(C(=O)c2ccc(-c3ccccc3C)cc2)C1 [Example A0066, (S, EZ)-(2-(1-Hydroxycyclopropyl)-4-(methoxyimino)pyrrolidin-1-yl)(2′-methyl-[1,1′-biphenyl]-4-yl)methanone] | 197 nM
12 | CO/N=C1\CN(C(=O)c2ccc(-c3ccccc3C)cc2)C(CO)(CO)C1 [Example A0083, (Z)-(2,2-Bis(hydroxymethyl)-4-(methoxyimino)pyrrolidin-1-yl)(2′-methyl-[1, 1′-biphenyl]-4-yl)methanone] | 539 nM
13 | CON=C1C[C@@H](c2nc3ccccc3o2)N(C(=O)c2ccc(-c3ccccc3C)cc2)C1 [Example A0086, (S, EZ)-(2-(Benzo[d]oxazol-2-yl)-4-(methoxyimino)pyrrolidin-1-yl)(2′-methyl-[1, 1′-biphenyl]-4-yl)methanone] | 237 nM
14 | CO/N=C1/CN(C(=O)c2ccc(-c3ccccc3C)cc2)C2(COC2)C1 [Example A0112, (E)-(7-(Methoxyimino)-2-oxa-5-azaspiro[3.4]octan-5-yl)(2′-methyl-[1, 1′-biphenyl]-4-yl)methanone] | 815 nM
15 | CO/N=C1/C[C@@H](CO)N(C(=O)c2ccc(-c3cccc(C)c3C#N)cc2)C1 [Example A0130, (S, Z)-4′-(2-(Hydroxymethyl)-4-(methoxyimino)pyrrolidine-1-carbonyl)-3-methyl-[1,1′-biphenyl]-2-carbonitrile] | 647 nM
16 | CO/N=C1/C[C@@H](CO)N(C(=O)c2ccc(-c3cccc(C)c3C)cc2C#N)C1 [Example A0131, 5-(2,3-Dimethylphenyl)-2-[(2S, 4Z)-2-(hydroxymethyl)-4-(methoxyimino)pyrrolidine-1-carbonyl]benzonitrile] | 172 nM
17 | CO/N=C1/C[C@@H](CO)N(C(=O)c2cnc(-c3cccc(C)c3C)c(C(F)(F)F)n2)C1 [Example A0137] | 153 nM
18 | CO/N=C1\C[C@@H](CO)N(C(=O)c2ccc(-c3cccc(C)c3C#N)cc2)C1 [Example A0144, (S, E)-4′-(2-(Hydroxymethyl)-4-(methoxyimino)pyrrolidine-1-carbonyl)-3-methyl-[1,1′-biphenyl]-2-carbonitrile] | 1110 nM
19 | CO/N=C1/C[C@@H](CO)N(C(=O)c2ccc(-c3cccc(C)c3C)c(OC3COC3)c2)C1 [Example A0147, (S, Z)-(2′, 3′-Dimethyl-2-(oxetan-3-yloxy)-[1, 1′-biphenyl]-4-yl)(2-(hydroxymethyl)-4-(methoxyimino)pyrrolidin-1-yl)methanone] | 23.5 nM
20 | COCCOc1cc(C(=O)N2C/C(=N\OC)C[C@H]2CO)ccc1-c1cccc(C)c1C [Example A0149, (S, Z)-(2-(Hydroxymethyl)-4-(methoxyimino)pyrrolidin-1-yl)(2-(2-methoxyethoxy)-2′, 3′-dimethyl-[1,1′-biphenyl]-4-yl)methanone] | 17.1 nM
21 | CO/N=C1\C[C@@H](CO)N(C(=O)c2ccc(-c3cccc(C)c3C)cc2C#N)C1 [Example A0153, 5-(2,3-Dimethylphenyl)-2-[(2S, 4E)-2-(hydroxymethyl)-4-(methoxyimino)pyrrolidine-1-carbonyl]benzonitrile] | 485 nM
22 | CO/N=C1/C[C@@H](CO)N(C(=O)c2ccc(-c3cccc(C)c3C)c(C(=O)N3CCOCC3)c2)C1 [Example A0158, (25, 4Z)-(2′, 3′-Dimethyl-2-(morpholine-4-carbonyl)-[1, 1′-biphenyl]-4-yl)(2-(hydroxymethyl)-4-(methoxyimino)pyrrolidin-1-yl)methanone] | 1520 nM
23 | CO/N=C1/C[C@@H](CO)N(C(=O)c2ccc(-c3cccc(C#N)c3C)c3c2OCC(=O)N3C)C1 [Example A0163, (S, Z)-3-(8-(2-(Hydroxymethyl)-4-(methoxyimino)pyrrolidine-1-carbonyl)-4-methyl-3-oxo-3,4-dihydro-2H-benzo[b][1,4]oxazin-5-yl)-2-methylbenzonitrile] | 202 nM
24 | CO/N=C1\C[C@@H](CO)N(C(=O)c2ccc(-c3cccc(C)c3C)c(C(=O)NC3COC3)c2)C1 [Example A0179, (S, E)-4-(2-(Hydroxymethyl)-4-(methoxyimino)pyrrolidine-1-carbonyl)-2′, 3′-dimethyl-N-(oxetan-3-yl)-[1,1′-biphenyl]-2-carboxamide] | 165 nM
25 | CO/N=C1/C[C@@H](CO)N(C(=O)c2ccc(-c3cccc(C#N)c3C)c(C3(O)COC3)c2)C1 [Example A0183, 3-(4-[(2S, 4Z)-2-(Hydroxymethyl)-4-(methoxyimino)pyrrolidine-1-carbonyl]-2-(3-hydroxyoxetan-3-yl)phenyl)-2-methylbenzonitrile] | 1480 nM
